Like-named read-outs stand apart in the source and are kept apart here.
Columns and labels:
[1] = biological target: T1, Human recombinant DHX9 protein (Homo sapiens, UniProt Q08211); assay: DHX9 ATPase assay (ADP-Glo); assay type: biochemical; details: for IC50: read-out: DHX9 Biochemical Inflection Point
T1 construct: purchased Viva

[2] = test system: circBRIP1 in HCT116 cells; assay: DHX9 circBRIP1 cellular target engagement SYBR Green assay (qPCR); assay type: cell-based; details: Homo sapiens, HCT-116, circBRIP1, HCT116 cells; SyBr assay (marked ^+); read-out: DHX9 Cellular Target Engagement EC50
NCI-H747 cells = assay: DHX9 cellular proliferation assay (CellTiter-Glo), NCI-H747 (CRC-MSS); assay type: cell-based; details: performed at Pharmaron, read-out: H747 (CRC-MSS) Antiproliferative IC50
[3] = test system: circBRIP1 in HCT116 cells; assay: DHX9 circBRIP1 cellular target engagement TaqMan Multiplex assay (qPCR); assay type: cell-based; details: * Taqman assay was used, read-out: DHX9 Cellular Target Engagement EC50
LS411N cells = assay: DHX9 cellular proliferation assay (CellTiter-Glo), LS411N (CRC-MSI); assay type: cell-based; details: LS411N, performed at Pharmaron, read-out: LS411N (CRC-MSI-H) Antiproliferative IC50
[4] = inflection point of dose-response curve
[5] = Homo sapiens, NCI-H747, NCI-H747
[6] = Homo sapiens, HCT-116, circBRIP1, HCT116 cells

T1 sequence (Q08211 whole entry): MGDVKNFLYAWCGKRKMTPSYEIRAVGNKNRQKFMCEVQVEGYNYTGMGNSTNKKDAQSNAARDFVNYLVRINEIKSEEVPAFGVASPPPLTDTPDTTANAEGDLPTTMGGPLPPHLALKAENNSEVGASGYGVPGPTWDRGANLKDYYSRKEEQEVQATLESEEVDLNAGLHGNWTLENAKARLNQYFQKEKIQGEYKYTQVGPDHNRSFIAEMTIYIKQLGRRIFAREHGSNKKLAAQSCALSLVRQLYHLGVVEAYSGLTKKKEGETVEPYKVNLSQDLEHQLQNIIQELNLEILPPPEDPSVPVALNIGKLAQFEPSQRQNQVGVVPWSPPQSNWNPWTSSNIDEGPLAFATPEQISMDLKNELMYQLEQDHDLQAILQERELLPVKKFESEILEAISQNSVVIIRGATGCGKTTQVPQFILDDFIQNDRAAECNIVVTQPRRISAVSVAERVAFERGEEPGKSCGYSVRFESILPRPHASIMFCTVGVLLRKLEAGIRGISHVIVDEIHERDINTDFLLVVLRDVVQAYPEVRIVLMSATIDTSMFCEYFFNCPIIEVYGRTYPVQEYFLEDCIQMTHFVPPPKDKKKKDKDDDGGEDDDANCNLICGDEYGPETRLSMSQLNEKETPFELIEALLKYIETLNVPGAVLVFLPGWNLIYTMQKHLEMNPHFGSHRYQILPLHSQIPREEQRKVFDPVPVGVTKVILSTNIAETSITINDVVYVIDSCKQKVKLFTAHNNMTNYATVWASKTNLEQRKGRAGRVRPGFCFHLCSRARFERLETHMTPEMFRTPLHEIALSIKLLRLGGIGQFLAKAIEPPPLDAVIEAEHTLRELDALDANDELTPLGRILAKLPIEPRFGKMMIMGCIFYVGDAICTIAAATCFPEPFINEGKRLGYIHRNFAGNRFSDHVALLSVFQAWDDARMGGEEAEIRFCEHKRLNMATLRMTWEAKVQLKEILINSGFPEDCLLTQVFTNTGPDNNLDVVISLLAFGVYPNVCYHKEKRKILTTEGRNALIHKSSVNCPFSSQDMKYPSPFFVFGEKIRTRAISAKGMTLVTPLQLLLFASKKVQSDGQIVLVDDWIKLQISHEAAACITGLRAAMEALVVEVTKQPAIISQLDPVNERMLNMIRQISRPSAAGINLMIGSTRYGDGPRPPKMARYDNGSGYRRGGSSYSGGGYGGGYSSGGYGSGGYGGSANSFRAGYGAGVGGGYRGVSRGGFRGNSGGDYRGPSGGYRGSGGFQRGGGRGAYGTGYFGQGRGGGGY

SMILES	IC50 (NCI-H747 cells; [5]) [nM]	EC50 [3, 6] [nM]	IC50 (LS411N cells; Homo sapiens, LS-411N) [nM]	further results
CS(=O)(=O)Nc1cc(Cl)cc(NC(=O)c2cnn([C@@H]3CCCC[C@H]3O)c2)c1 (single isomer, unassigned) [Example 150, N-(3-chloro-5-(methylsulfonamido)phenyl)-1-(trans-2-hydroxycyclohexyl)-1H-pyrazole-4-carboxamide]				IC50 [1, 4]: 147 nM; EC50 [2]: 6560 nM
CS(=O)(=O)Nc1cc(Cl)cc(NC(=O)c2cnn([C@H]3CCC[C@H]3Oc3ccccc3)c2)c1 (single isomer, unassigned) [Example 259]				IC50 [1, 4]: 1940 nM; EC50 [2]: > 10000 nM
CS(=O)(=O)Nc1cc(Cl)cc(NC(=O)c2cnn([C@H]3CCC[C@H]3c3ccccc3)c2)c1 (single isomer, unassigned) [Example 260]				IC50 [1, 4]: 715 nM; EC50 [2]: > 10000 nM
Cc1sc(C(=O)Nc2cc(Cl)cc(NS(C)(=O)=O)c2)cc1-c1ncccc1OC(C)c1cc(F)cc(F)c1 (single isomer, unassigned) [Example 632]	> 10000	112	96.8	DHX9 Biochemical Max Inhibition (%) [1]: 71.5%
Cc1sc(C(=O)Nc2cc(Cl)cc(NS(C)(=O)=O)c2)cc1-c1ncccc1-c1cncc(F)c1 [Example 229]				DHX9 Biochemical Max Inhibition [1]: 72.5%; IC50 [1, 4]: 9.6 nM; EC50 [2]: 78.1 nM; IC50 (NCI-H747 cells; Homo sapiens, NCI-H747, NCI-H747, CRC-MSS): > 10000 nM; IC50 (LS411N cells; Homo sapiens, LS-411N, CRC-MSI-H): 51 nM
CC(C)(C)OC(=O)NC1CC2(C1)CC(n1cc(C(=O)Nc3cc(Cl)cc(NS(C)(=O)=O)c3)cn1)C2 (centres unmarked) [Example 318]				IC50 [1, 4]: 207 nM; EC50 [2]: 4900 nM
Cc1sc(C(=O)Nc2cc(Cl)cc(NS(C)(=O)=O)c2)cc1-c1ncc(N2CCC3(C2)CC3(F)F)cn1 (centres unmarked) [Example 491]	2160	20.7	59.1	DHX9 Biochemical Max Inhibition (%) [1]: 72%
CCS(=O)(=O)Nc1cc(Cl)cc(NC(=O)c2cc(-c3ncc(N4CC(F)(F)C4)cc3F)n(C)c2)c1 [Example 517]				DHX9 Biochemical Max Inhibition (%) [1]: 54.1%; IC50 (NCI-H747 cells; NCI-H747): 2220 nM; EC50 ([3]; circBRIP1, HCT116 cells): 16.8 nM; IC50 (LS411N cells): 135 nM
CN1CC(Oc2ccc(-c3cc(C(=O)Nc4cc(Cl)cc(NS(C)(=O)=O)c4)cn3C)nc2)C1 [Example 612, N-(3-chloro-5-methanesulfonamidophenyl)-1-methyl-5-{5-[(1-methylazetidin-3-yl)oxy]pyridin-2-yl}pyrrole-3-carboxamide]	> 10000	21.2	281	DHX9 Biochemical Max Inhibition (%) [1]: 70%; IC50 [1]: 10.1 nM
Cn1cc(C(=O)Nc2cc(Cl)cc(NS(C)(=O)=O)c2)cc1-c1ncncc1OCc1cc(F)cc(F)c1 [Example 627]	> 10000	37.6	29.4	
Cc1sc(C(=O)Nc2cc(Cl)cc(NS(C)(=O)=O)c2)cc1-c1ncc(OC2CN(C)C2)cc1F [Example 635]	> 10000	19.1	79.2	
Cc1sc(C(=O)Nc2cc(Cl)cc(NS(C)(=O)=O)c2)cc1-c1ncc(OC2CNC2)cn1 [Example 636, 4-[5-(azetidin-3-yloxy)pyrimidin-2-yl]-N-(3-chloro-5-methanesulfonamidophenyl)-5-methylthiophene-2-carboxamide]	> 10000	300	1210	
CN(C)CCOc1cnc(-c2cc(C(=O)Nc3cc(Cl)cc(NS(C)(=O)=O)c3)cn2C)c(F)c1 [Example 646]	> 10000	45.3	32.5	
Cc1cc(C(=O)Nc2cc(Cl)cc(NS(C)(=O)=O)c2)cn1-c1ncc(OC(C)(C)C)cn1 [Example 664]	> 10000	71.9	163	
Cc1sc(C(=O)Nc2cc(Cl)cc(NS(C)(=O)=O)c2)cc1-c1ncc(OC(C)(C)CO)cn1 [Example 678]	3100	18.7	391	
Cc1sc(C(=O)Nc2cc(Cl)cc(NS(C)(=O)=O)c2)cc1-c1ncc(C2(F)COC2)cn1 [Example 680]	8760	31	208	
CC(C)(C)Oc1cnc(-c2cc(C(=O)Nc3cc(Cl)cc(NS(C)(=O)=O)c3)sc2CO)nc1 [Example 686]	4630	47.7	132	
Cn1cc(C(=O)Nc2cc(Cl)cc(NS(C)(=O)=O)c2)cc1-c1ccc(N2CC(C)(F)C2)cn1 [Example 688]	6360	47.5	122	

SMILES	IC50 (NCI-H747 cells; [5]) [nM]	EC50 [3, 6] [nM]	IC50 (LS411N cells; Homo sapiens, LS-411N) [nM]	further results
Cc1cc(C(=O)Nc2cc(Cl)cc(NS(C)(=O)=O)c2)cn1-c1ncc(N2CC(C(F)(F)F)C2)cn1 [Example 694]	7770	90	80.4	
Cn1cc(C(=O)Nc2cc(Cl)cc(NS(C)(=O)=O)c2)cc1-c1ccc(N2CC(CS(C)(=O)=O)C2)cn1 [Example 695]	> 10000	143	2970	
Cc1sc(C(=O)Nc2cc(Cl)cc(NS(C)(=O)=O)c2)cc1-c1ncc(F)cc1C#CC(C)(C)O [Example 696]	7700	36.7	45.1	
CC(=O)N1CCC(c2cnc(-c3cc(C(=O)Nc4cc(Cl)cc(NS(C)(=O)=O)c4)sc3C)nc2)CC1 [Example 699]	> 10000	21.9	517	
Cn1cc(C(=O)Nc2cc(Cl)cc(NS(C)(=O)=O)c2)cc1-c1ncc(N2CC3(C2)CC(F)(F)C3)cc1F [Example 702]	8120	31.6	224	
Cn1cc(C(=O)Nc2cc(Cl)cc(NS(C)(=O)=O)c2)cc1-c1ccc(C2CCOCC2)cn1 [Example 704]	7140	25.4	56.9	
Cc1sc(C(=O)Nc2cc(Cl)cc(NS(C)(=O)=O)c2)cc1-c1ncc(OCC(F)(F)F)cn1 [Example 706]	3880	51.7	243	
Cc1sc(C(=O)Nc2cc(Cl)cc(NS(C)(=O)=O)c2)cc1-c1ncc(N2CC(F)(F)C2)cc1OCC(F)(F)F [Example 707]	5360	25.4	68.5	
Cc1cc(C(=O)Nc2cc(Cl)cc(NS(C)(=O)=O)c2)cn1-c1ncc(N2CC(F)(F)C2)cc1OCC(F)(F)F [Example 708]	6460	92.6	140	
Cc1sc(C(=O)Nc2cc(Cl)cc(NS(C)(=O)=O)c2)cc1-c1ccc(C2CN(CC(F)(F)F)C2)cn1 [Example 710]	5400	10.7	48.1	
Cc1sc(C(=O)Nc2cc(Cl)cc(NS(C)(=O)=O)c2)cc1-c1ncc(N2CC(F)(F)C2)cc1C#N [Example 715]	9760	14.4	69.9	
Cc1sc(C(=O)Nc2cc(Cl)cc(NS(C)(=O)=O)c2)cc1-c1ncc(N(C)S(C)(=O)=O)cn1 [Example 720]	7900	54.9	452	
Cn1cc(C(=O)Nc2cc(Cl)cc(NS(C)(=O)=O)c2)cc1-c1ncc(F)cc1CCc1cncc(F)c1 [Example 728]				DHX9 Biochemical Max Inhibition (%) [1]: 62.5%; EC50 ([3]; circBRIP1, HCT116 cells): 1350 nM
Cc1sc(C(=O)Nc2cc(Cl)cc(NS(C)(=O)=O)c2)cc1-c1ncc(F)cc1OCc1cnco1 [Example 732]	4570	26.1	34.1	
Cn1cc(C(=O)Nc2cc(Cl)cc(NS(C)(=O)=O)c2)cc1-c1ncc(N2CC(F)(F)C2)cc1OCc1cnco1 [Example 733]	> 10000	88.3	206	
Cc1ncc(OCc2cc(F)cc(F)c2)c(-c2cc(C(=O)Nc3cc(Cl)cc(NS(C)(=O)=O)c3)cn2C)n1 [Example 734]	6170	3	10.6	
CS(=O)(=O)Nc1cc(Cl)cc(NC(=O)c2cc(-c3ncc(F)cc3OCc3cncnc3)n(CC(F)(F)F)c2)c1 [Example 735]	> 10000	77.2	306	
